Data taken from PMC4380447, “Infrared Fluorescent Imaging as a Potent Tool for In Vitro, Ex Vivo and In Vivo Models of Visceral Leishmaniasis” (PLoS Neglected Tropical Diseases, 2015).
Like-named read-outs stand apart in the source and are kept apart here.

Tested on: HSP70+L. infantum amastigotes
Assay: ex vivo splenic explant culture of infrared HSP70+L. infantum-infected BALB/c mice, infrared fluorescence readout (384-well)
Format: cell-based
Details: Leishmania infantum
Description: Several parameters were included in the development of the explant culture. i) Parasite infection rate is not equal in all animals from the same batch, thus in order to normalize the ex vivo culture, only spleens with weights ≥ 0.7 g were selected to prepare the ex vivo explants. ii) The starting cell density was adjusted in terms of fluorescence emission in a wide range of arbitrary units (0.25, 0.5, 1.0, and 2.0 x 10^5 AU). Since we intend to evaluate the drug inhibition in ex vivo cultures for at least 4 days, the initial number of AU that matched this condition was chosen. iii) Discrimination between drug-treated and untreated control cells was assessed by adding amphotericin B (AmpB) to the explants cultures. iv) To prevent the edge effect caused by evaporation from outer wells in assays with multi-day incubations, the top and bottom rows as well as the first and last columns were filled with ddH2O. In addition, the positive and negative controls were symmetrically distributed through the columns.
A total of 298 compounds belonged to three distinct collections including i) indenoisoquinolines obtained from Dr. Mark S. Cushman, Department of Medicinal Chemistry and Molecular Pharmacology (Purdue University, Indiana, USA.); ii) podophylotoxin and quinones were a kindly gift from Dr. Arturo San Feliciano, Deparment of Química Farmacéutica (Universidad de Salamanca, Spain) and iii) carbolins obtained from Dr. Sankaran Murugeshan, Department of Pharmacy, (Birla Institute of Technology & Science, Pilani, India). Stock solutions consisted of test compound at a concentration of 200 μM in 20% DMSO. The 200 μM master plates were further diluted by transferring aliquots of 5 μl into black 384-well plates with clear bottom containing 45 μl of culture medium. The final concentration of DMSO in both assay and control wells not exceeded 1% (v/v). […] The plates were incubated at 37 °C and 5% CO2 and at 0, 24, 48 and 72 h the infrared signal was recorded using the Odyssey infrared system (LI-COR, USA). […]
The antileishmanial effect of the compounds was calculated as the percentage inhibition in relation to AmpB and DMSO as follows: (mean of 1%DMSO–Experimental Value) / (mean of 1%DMSO–mean of AmpBEC100) x 100. […] The quality of the assay was given by Z’ factor that was calculated as 1 –[(3SD positive controls + 3SD negative controls) / (mean of the positive controls–mean of the negative controls)]. […]
Firstly, we checked the fluorescence dynamic range in which we could assure the effective and quantifiable replication of intracellular parasites inside macrophages in the absence of active drug over the course of the ex vivo culture. […] For this purpose, we fixed the fluorescence level per well, instead of adjusting the number of cells. […]

Compound: C[C@@H]1[C@H](O)[C@@H](C)/C=C/C=C/C=C/C=C/C=C/C=C/C=C/[C@H](O[C@@H]2O[C@H](C)[C@@H](O)[C@H](N)[C@@H]2O)C[C@@H]2O[C@](O)(C[C@@H](O)C[C@@H](O)[C@H](O)CC[C@@H](O)C[C@@H](O)CC(=O)O[C@H]1C)C[C@H](O)[C@H]2C(=O)O [AmpB, amphotericin B]
- IC50 (72 h, across all starting cell densities (1.0, 2.0 and 4.0 x10^5 AU), read-out: IC50 values at 72 h): 270 to 380 nM
- IC50 (starting cell density High: 4x10^5 AU, ten 2-fold dilutions from 10 μM, Fig 4E): 310 ± 50 nM
- IC50 (starting cell density Low: 1x10^5 AU, ten 2-fold dilutions from 10 μM, Fig 4C): 380 ± 60 nM
- IC50 (starting cell density Medium: 2x10^5 AU, ten 2-fold dilutions from 10 μM, Fig 4D): 270 ± 40 nM
